Activity calls are given as the source filed them. No cut-off for these calls is given here.
Assays:
A2780 [1] = test: Cytotoxicity against human A2780 cells up to 10 uM after 48 hrs by MTT assay; type: functional, cell-based
HEY [2] = test: Cytotoxicity against human HEY cells up to 10 uM after 48 hrs by MTT assay; type: functional, cell-based
HEY [3] = test: Cytotoxicity against human HEY cells after 48 hrs by MTT assay; type: functional, cell-based
A2780 [4] = test: Induction of autophagy in human A2780 cells assessed as increase in LC3-2 expression up to 10 uM after 24 hrs by Western blot analysis; type: functional, cell-based
HEY [5] = test: Induction of autophagy in human HEY cells assessed as increase in LC3-2 expression up to 10 uM after 24 hrs by Western blot analysis; type: functional, cell-based
A2780 [6] = test: Induction of autophagy in human A2780 cells expressing mRFP-GFP-LC3 plasmid assessed as increase in LC3 punctum formation at 10 uM after 24 hrs by confocal microscopic analysis; type: functional, cell-based
[7] = biological target: T1, c-Jun N-terminal kinase, JNK (Homo sapiens) (UniProt P45983+P53779+P45984); test: Activation of JNK phosphorylation in human A2780 cells up to 10 uM after 24 hrs by Western blot analysis; type: cell-based
[8] = biological target: T1, c-Jun N-terminal kinase, JNK (Homo sapiens); test: Activation of JNK in human A2780 cells assessed as increase in c-jun expression up to 10 uM after 24 hrs by Western blot analysis; type: cell-based
[9] = biological target: T1, c-Jun N-terminal kinase, JNK (Homo sapiens); test: Activation of JNK in human A2780 cells assessed as increase in phosphorylated c-jun expression up to 10 uM after 24 hrs in presence of JNK/c-Jun pathway inhibitor SP600125 by Western blot analysis; type: cell-based
[10] = biological target: T1, c-Jun N-terminal kinase, JNK (Homo sapiens); test: Activation of JNK in human A2780 cells assessed as increase in phosphorylated c-jun expression up to 10 uM after 24 hrs by Western blot analysis; type: cell-based
[11] = biological target: T1, c-Jun N-terminal kinase, JNK (Homo sapiens); test: Activation of JNK phosphorylation in human A2780 cells up to 10 uM after 24 hrs in presence of JNK/c-Jun pathway inhibitor SP600125 by Western blot analysis; type: cell-based
A2780 [12] = test: Induction of autophagy in human A2780 cells assessed as increase in LC3-2 expression in presence of JNK/c-Jun pathway inhibitor SP600125 by Western blot analysis; type: functional, cell-based
A2780 [13] = test: Induction of autophagy in human A2780 cells assessed as increase in LC3-2 expression by Western blot analysis; type: functional, cell-based
HEY [14] = test: Induction of autophagy in human HEY cells assessed as increase in LC3-2 expression by Western blot analysis; type: functional, cell-based
A2780 [15] = test: cells; conditions: Homo sapiens, A2780, 48 h
Description: (§1) Cytotoxicity against human A2780 cells after 48 hrs by MTT assay

A2780 [16] = conditions: Homo sapiens
Description: as §1

SMILES	Activity (A2780 [1])	Activity (HEY [2])	Activity (HEY [3])	Activity (A2780 [16])	further results
CCc1oc(=O)cc2c1C[C@H]1OC(=O)[C@@]3(C)[C@@H](O)[C@@H](O)[C@H](O)[C@@]2(C)[C@@H]13	inactive	inactive			
CCc1oc(=O)cc2c1C[C@H]1OC(=O)[C@@]3(C)C[C@@H](O)[C@@H](O)[C@@]2(C)[C@@H]13					IC50 (HEY [3]): < 2500 nM; Activity (A2780 [4]): Active; Activity (HEY [5]): Active; Activity (A2780 [6]): Active; Activity [7]: Active; Activity [8]: Active; Activity [9]: inactive; Activity [10]: Active; Activity [11]: inactive; Activity (A2780 [12]): inactive; Activity (A2780 [13]): Active; Activity (HEY [14]): Active; IC50 (A2780 [15]): < 2500 nM
CC(C)[C@H]1OC(=O)C=C2[C@@]13O[C@@H]3[C@H]1OC(=O)[C@@]3(C)CCC[C@@]2(C)[C@@H]13			Active	Active	
CC(C)c1oc(=O)cc2c1[C@@H](O)[C@H]1OC(=O)[C@@]3(C)C[C@@H](O)[C@@H](O)[C@@]2(C)[C@@H]13			Active	Active	
CC(O)c1oc(=O)cc2c1C[C@H]1OC(=O)[C@@]3(C)[C@H](O)[C@H]4O[C@H]4[C@@]2(C)[C@@H]13 (some centres not stated)	inactive	inactive			
CC(C)c1oc(=O)cc2c1[C@@H](O)[C@H]1OC(=O)[C@@]3(C)CC[C@@H](O)[C@@]2(C)[C@@H]13			Active	Active	
CC(C)c1oc(=O)cc2c1[C@@H](O)[C@H]1OC(=O)[C@@]3(C)C[C@@H](O)C[C@@]2(C)[C@@H]13			Active	Active	
CCc1oc(=O)cc2c1C[C@H]1OC(=O)[C@@]3(C)CC[C@@H](O)[C@@]2(C)[C@@H]13					IC50 (HEY [3]): 6400 nM; IC50 (A2780 [15]): 3800 nM
CCc1oc(=O)cc2c1[C@@H](O)[C@H]1OC(=O)[C@@]3(C)[C@@H](O)[C@H]4O[C@H]4[C@@]2(C)[C@@H]13	inactive	inactive			
CC(O)c1oc(=O)cc2c1C[C@H]1OC(=O)[C@@]3(C)CC[C@@H](O)[C@@]2(C)[C@@H]13 (some centres not stated)	inactive	inactive			
CCc1oc(=O)cc2c1C[C@H]1OC(=O)[C@@]3(C)[C@@H](O)[C@H]4O[C@H]4[C@@]2(C)[C@@H]13			Active	Active	
CC(C)c1oc(=O)cc2c1[C@@H](O)[C@H]1OC(=O)[C@@]3(C)[C@@H](O)[C@H]4O[C@H]4[C@@]2(C)[C@@H]13			Active	Active	
CCc1oc(=O)cc2c1C[C@H]1OC(=O)[C@@]3(C)[C@H](O)[C@H]4O[C@H]4[C@@]2(C)[C@@H]13			Active	Active	Activity (A2780 [13]): Active; Activity (HEY [14]): Active
CCc1oc(=O)cc2c1C[C@H]1OC(=O)[C@@]3(C)[C@@H](O)C[C@@H](O)[C@@]2(C)[C@@H]13	inactive	inactive			
CC(C)c1oc(=O)cc2c1[C@@H](O)[C@H]1OC(=O)[C@@]3(C)CC(=O)[C@@H](O)[C@@]2(C)[C@@H]13	inactive	inactive			
CC(O)c1oc(=O)cc2c1C[C@H]1OC(=O)[C@@]3(C)[C@@H](O)[C@@H](O)[C@H](Cl)[C@@]2(C)[C@@H]13 (some centres not stated)	inactive	inactive			
CC(=O)O[C@H]1C(=O)[C@@]2(C)[C@H]([C@H](OC(=O)c3ccccc3)[C@]3(O)C[C@H](OC(=O)[C@H](O)[C@@H](NC(=O)c4ccccc4)c4ccccc4)C(C)=C1C3(C)C)[C@]1(OC(C)=O)CO[C@@H]1C[C@@H]2O [PACLITAXEL]					IC50 (HEY [3]): 104 nM; IC50 (A2780 [15]): 164 nM

Reference: ChEMBL document CHEMBL4190272, “Norditerpenoids and Dinorditerpenoids from the Seeds of Podocarpus nagi as Cytotoxic Agents and Autophagy Inducers” (J Nat Prod, 2017)
